Key:
Assay type in all cases: in vivo
Solanum nigrum (SOLNI) [1] = test: Pre-emergence biological efficacy, glasshouse, 1000 g/ha, evaluated after 13 days (100=total damage to plant; 0=no damage to plant); details: Solanum nigrum, 312 h, rate 1,000 g/ha, read-out: Percentage damage caused to weed species, pre-emergence, SOLNI
Experimental: (§1) Seeds of Alopecurus myosuroides (ALOMY), Setaria faberi (SETFA), Echinochloa crus-galli (ECHCG), Solanum nigrum (SOLNI), Amaranthus retroflexus (AMARE) and Ipomoea hederaceae (IPOHE) were sown in standard soil in pots. […] The test plants were then grown under controlled conditions in the glasshouse (at 24/16° C., day/night; 14 hours light; 65% humidity) and watered twice daily. […]

[2] = test system: Amaranthus retroflexus (AMARE); test: as above; details: Amaranthus retroflexus, 312 h, rate 1,000 g/ha, read-out: Percentage damage caused to weed species, pre-emergence, AMARE
Experimental: as §1

[3] = test system: Alopecurus myosuroides (ALOMY); test: as above; details: Alopecurus myosuroides, 312 h, rate 1,000 g/ha, read-out: Percentage damage caused to weed species, pre-emergence, ALOMY
Experimental: as §1

Setaria faberi (SETFA) [4] = test: as above; details: Setaria faberi, 312 h, rate 1,000 g/ha, read-out: Percentage damage caused to weed species, pre-emergence, SETFA
Experimental: as §1

[5] = test system: Ipomoea hederaceae (IPOHE); test: as above; details: Ipomoea, 312 h, rate 1,000 g/ha, read-out: Percentage damage caused to weed species, pre-emergence, IPOHE
Experimental: as §1

[6] = test system: Echinochloa crus-galli (ECHCG); test: as above; details: Echinochloa crus-galli, 312 h, rate 1,000 g/ha, read-out: Percentage damage caused to weed species, pre-emergence, ECHCG
Experimental: as §1

[7] = test system: Echinochloa crusgaffi (ECHCG); test: Post-emergence biological efficacy, glasshouse, 500 or 1000 g/ha, evaluated after 13 days (100=total damage to plant; 0=no damage to plant); details: Echinochloa, 312 h, rate 1,000 g/ha, read-out: Percentage damage caused to weed species, post-emergence, ECHCG
Experimental: as §1, with “Echinochloa […]),” for “Echinochloa crus-galli (ECHCG),”, “grown on” for “grown”, “in a” for “in the”

Solanum nigrum (SOLNI) [8] = test: as above; details: Solanum nigrum, 312 h, rate 1,000 g/ha, read-out: Percentage damage caused to weed species, post-emergence, SOLNI
Experimental: as §1, with “Echinochloa […]),” for “Echinochloa crus-galli (ECHCG),”, “grown on” for “grown”, “in a” for “in the”

[9] = test system: Amaranthus retroflexus (AMARE); test: as above; details: Amaranthus retroflexus, 312 h, rate 1,000 g/ha, read-out: Percentage damage caused to weed species, post-emergence, AMARE
Experimental: as §1, with “Echinochloa […]),” for “Echinochloa crus-galli (ECHCG),”, “grown on” for “grown”, “in a” for “in the”

[10] = test system: Alopecurus myosuroides (ALOMY); test: as above; details: Alopecurus myosuroides, 312 h, rate 1,000 g/ha, read-out: Percentage damage caused to weed species, post-emergence, ALOMY
Experimental: as §1, with “Echinochloa […]),” for “Echinochloa crus-galli (ECHCG),”, “grown on” for “grown”, “in a” for “in the”

Setaria faberi (SETFA) [11] = test: as above; details: Setaria faberi, 312 h, rate 1,000 g/ha, read-out: Percentage damage caused to weed species, post-emergence, SETFA
Experimental: as §1, with “Echinochloa […]),” for “Echinochloa crus-galli (ECHCG),”, “grown on” for “grown”, “in a” for “in the”

[12] = test system: Ipomoea hederaceae (IPOHE); test: as above; details: Ipomoea, 312 h, rate 1,000 g/ha, read-out: Percentage damage caused to weed species, post-emergence, IPOHE
Experimental: as §1, with “Echinochloa […]),” for “Echinochloa crus-galli (ECHCG),”, “grown on” for “grown”, “in a” for “in the”

Row | Structure (SMILES) | pest or weed control at 1000 g/ha (Solanum nigrum (SOLNI) [1]) | pest or weed control at 1000 g/ha [2] | pest or weed control at 1000 g/ha [3] | pest or weed control at 1000 g/ha (Setaria faberi (SETFA) [4]) | pest or weed control at 1000 g/ha [5] | pest or weed control at 1000 g/ha [6] | pest or weed control at 1000 g/ha [7] | pest or weed control at 1000 g/ha (Solanum nigrum (SOLNI) [8]) | pest or weed control at 1000 g/ha [9] | pest or weed control at 1000 g/ha [10] | pest or weed control at 1000 g/ha (Setaria faberi (SETFA) [11]) | pest or weed control at 1000 g/ha [12]
1 | COC(=O)c1nc(C2CC2)nc2[nH]c(C)cc12 [Compound 1-6, 2-cyclopropyl-4-methoxycarbonyl-6-methyl-7H-pyrrolo[2,3-d]pyrimidine] | 0% | 0% | 0% | 0% | 0% | 0% | 0% | 0% | 0% | 0% | 0% | 0%
2 | COC(=O)c1nc(-c2ccc(Cl)c(F)c2)nc2[nH]cc(C)c12 [Compound 1-20, 2-(4-Chloro-3-fluorophenyl)-4-methoxycarbonyl-5-methyl-7H-pyrrolo[2,3-d]pyrimidine] | 0% | 50% | 0% | 0% | 0% | 0% | 0% | 70% | 70% | 0% | 0% | 60%
3 | COC(=O)c1nc(-c2ccc(Cl)c(F)c2)nc2[nH]c(C)cc12 [Compound 1-22, 2-(4-Chloro-3-fluorophenyl)-4-methoxycarbonyl-6-methyl-7H-pyrrolo[2,3-d]pyrimidine] | 0% | 0% | 0% | 0% | 0% | 0% | 0% | 30% | 20% | 10% | 10% | 40%
4 | COC(=O)c1nc(-c2ccc(Cl)c(F)c2)nc2[nH]c(C)c(C)c12 [Compound 1-24, 2-(4-chloro-3-fluorophenyl)-5,6-dimethyl-4-methoxycarbonyl-7H-pyrrolo[2,3-d]pyrimidine] | 0% | 0% | 0% | 0% | 0% | 0% | 0% | 50% | 10% | 0% | 0% | 20%
5 | COc1c(Cl)ccc(-c2nc(C(=O)O)c3c(C)c[nH]c3n2)c1F [Compound 1-63, 4-carboxy-2-(4-chloro-2-fluoro-3-methoxyphenyl)-5-methyl-7H-pyrrolo[2,3-d]pyrimidine] | 90% | 70% | 30% | 10% | 80% | 20% | 60% | 100% | 100% | 40% | 60% | 70%
6 | COC(=O)c1nc(-c2ccc(Cl)c(OC)c2F)nc2[nH]cc(C)c12 [Compound 1-64, 2-(4-chloro-2-fluoro-3-methoxyphenyl)-4-methoxycarbonyl-5-methyl-7H-pyrrolo[2,3-d]pyrimidine] | 70% | 100% | 20% | 10% | 100% | 30% | 70% | 80% | 100% | 20% | 70% | 70%
7 | COc1c(Cl)ccc(-c2nc(C(=O)O)c3cc(C)[nH]c3n2)c1F [Compound 1-65] | 0% | 0% | 0% | 0% | 0% | 0% | 40% | 60% | 40% | 0% | 10% | 60%
8 | COC(=O)c1nc(-c2ccc(Cl)c(OC)c2F)nc2[nH]c(C)cc12 [Compound 1-66, 2-(4-chloro-2-fluoro-3-methoxyphenyl)-4-methoxycarbonyl-6-methyl-7H-pyrrolo[2,3-d]pyrimidine] | 100% | 100% | 20% | 70% | 90% | 40% | 80% | 100% | 100% | 80% | 80% | 80%
9 | COC(=O)c1nc(-c2ccc(Cl)c(OC)c2F)nc2[nH]c(C)c(C)c12 [Compound 1-68, 2-(4-Chloro-2-fluoro-3-methoxyphenyl)-5,6-dimethyl-4-methoxycarbonyl-7H-pyrrolo[2,3-d]pyrimidine] | 0% | 0% | 0% | 0% | 0% | 0% | 10% | 30% | 10% | 0% | 0% | 60%
10 | CCOC(=O)c1nc(-c2ccc(Cl)c(OC)c2F)nc2[nH]cc(C)c12 [Compound 1-75, 2-(4-Chloro-2-fluoro-3-methoxyphenyl)-4-ethoxycarbonyl-5-methyl-7H-pyrrolo[2,3-d]pyrimidine] | 0% | 0% | 0% | 0% | 0% | 0% | 0% | 70% | 40% | 0% | 0% | 70%
11 | CCCCCCCCOC(=O)c1nc(-c2ccc(Cl)c(OC)c2F)nc2[nH]cc(C)c12 [Compound 1-77, 2-(4-Chloro-2-fluoro-3-methoxyphenyl)-5-methyl-4-(n-octyloxycarbonyl)-7H-pyrrolo[2,3-d]pyrimidine] | 10% | 0% | 0% | 10% | 0% | 0% | 0% | 70% | 10% | 0% | 10% | 40%
12 | COc1c(Cl)ccc(-c2nc(C(=O)OC(C)C)c3c(C)c[nH]c3n2)c1F [Compound 1-78, 2-(4-Chloro-2-fluoro-3-methoxyphenyl)-4-isopropoxycarbonyl-5-methyl-7H-pyrrolo[2,3-d]pyrimidine] | 40% | 50% | 0% | 0% | 20% | 0% | 0% | 60% | 0% | 0% | 0% | 70%
